Converted amounts (≈) assume the structure as drawn. Read-outs that look alike come from different tables or passages of the source.
Experiments:
AD/CDR1-A713P = assay: MIC, modified CLSI M27-A3 broth microdilution; conditions: for MIC: Saccharomyces cerevisiae, read-out: MIC (drug susceptibility); for Fold-reduced resistance level (MIC) relative to AD/CDR1: A713P, 1 = no change
AD/CDR1-G521R = assay: MIC, modified CLSI M27-A3 broth microdilution; conditions: for Fold-reduced resistance level (MIC) relative to AD/CDR1: G521R, 1 = no change; for MIC: Saccharomyces cerevisiae, read-out: MIC (drug susceptibility)
AD/CDR1-T1355N = assay: MIC, modified CLSI M27-A3 broth microdilution; conditions: for MIC: Saccharomyces cerevisiae, read-out: MIC (drug susceptibility); for Fold-reduced resistance level (MIC) relative to AD/CDR1: T1355N, 1 = no change
AD/CDR1-M639I = assay: MIC, modified CLSI M27-A3 broth microdilution; conditions: for Fold-reduced resistance level (MIC) relative to AD/CDR1: M639I, 1 = no change; for MIC: Saccharomyces cerevisiae, read-out: MIC (drug susceptibility)
wt Cdr1 ATPase activity = wt Cdr1 ATPase activity (Candida albicans, UniProt Q5ANA3); assay: biochemical; conditions: for Vmax of ATPase activity in the presence of inhibitor: CDR1; for type of inhibition of ATPase activity (Lineweaver-Burk): wt Cdr1
[1] = test system: AD/pABC3 (empty vector control, sensitive strain); assay: microbe, parasite or virus in culture; conditions: Saccharomyces cerevisiae
[2] = test system: AD/CDR1 (AD1-8u- overexpressing wt Cdr1); assay: MIC, modified CLSI M27-A3 broth microdilution; conditions: Saccharomyces cerevisiae, read-out: MIC (drug susceptibility)
[3] = test system: AD/pABC3 (empty vector control, sensitive strain); conditions: cited from earlier work
[4] = molecular target: wt Cdr1 (FLC efflux of AD/CDR1 cells) (Candida albicans, UniProt Q5ANA3); conditions: for lowest MICFLC in the presence of inhibitor: FLC 5 to 640 mg/L tested
[5] = molecular target: Cdr1-G521R (FLC transport) (Candida albicans, UniProt Q5ANA3, G521R); assay: Agarose diffusion FLC chemosensitization assay; assay type: cell-based; conditions: 0.25× MICFLC, disc
Chain of Cdr1-G521R (FLC transport) (Q5ANA3 whole entry G521R, the tested form may be a part): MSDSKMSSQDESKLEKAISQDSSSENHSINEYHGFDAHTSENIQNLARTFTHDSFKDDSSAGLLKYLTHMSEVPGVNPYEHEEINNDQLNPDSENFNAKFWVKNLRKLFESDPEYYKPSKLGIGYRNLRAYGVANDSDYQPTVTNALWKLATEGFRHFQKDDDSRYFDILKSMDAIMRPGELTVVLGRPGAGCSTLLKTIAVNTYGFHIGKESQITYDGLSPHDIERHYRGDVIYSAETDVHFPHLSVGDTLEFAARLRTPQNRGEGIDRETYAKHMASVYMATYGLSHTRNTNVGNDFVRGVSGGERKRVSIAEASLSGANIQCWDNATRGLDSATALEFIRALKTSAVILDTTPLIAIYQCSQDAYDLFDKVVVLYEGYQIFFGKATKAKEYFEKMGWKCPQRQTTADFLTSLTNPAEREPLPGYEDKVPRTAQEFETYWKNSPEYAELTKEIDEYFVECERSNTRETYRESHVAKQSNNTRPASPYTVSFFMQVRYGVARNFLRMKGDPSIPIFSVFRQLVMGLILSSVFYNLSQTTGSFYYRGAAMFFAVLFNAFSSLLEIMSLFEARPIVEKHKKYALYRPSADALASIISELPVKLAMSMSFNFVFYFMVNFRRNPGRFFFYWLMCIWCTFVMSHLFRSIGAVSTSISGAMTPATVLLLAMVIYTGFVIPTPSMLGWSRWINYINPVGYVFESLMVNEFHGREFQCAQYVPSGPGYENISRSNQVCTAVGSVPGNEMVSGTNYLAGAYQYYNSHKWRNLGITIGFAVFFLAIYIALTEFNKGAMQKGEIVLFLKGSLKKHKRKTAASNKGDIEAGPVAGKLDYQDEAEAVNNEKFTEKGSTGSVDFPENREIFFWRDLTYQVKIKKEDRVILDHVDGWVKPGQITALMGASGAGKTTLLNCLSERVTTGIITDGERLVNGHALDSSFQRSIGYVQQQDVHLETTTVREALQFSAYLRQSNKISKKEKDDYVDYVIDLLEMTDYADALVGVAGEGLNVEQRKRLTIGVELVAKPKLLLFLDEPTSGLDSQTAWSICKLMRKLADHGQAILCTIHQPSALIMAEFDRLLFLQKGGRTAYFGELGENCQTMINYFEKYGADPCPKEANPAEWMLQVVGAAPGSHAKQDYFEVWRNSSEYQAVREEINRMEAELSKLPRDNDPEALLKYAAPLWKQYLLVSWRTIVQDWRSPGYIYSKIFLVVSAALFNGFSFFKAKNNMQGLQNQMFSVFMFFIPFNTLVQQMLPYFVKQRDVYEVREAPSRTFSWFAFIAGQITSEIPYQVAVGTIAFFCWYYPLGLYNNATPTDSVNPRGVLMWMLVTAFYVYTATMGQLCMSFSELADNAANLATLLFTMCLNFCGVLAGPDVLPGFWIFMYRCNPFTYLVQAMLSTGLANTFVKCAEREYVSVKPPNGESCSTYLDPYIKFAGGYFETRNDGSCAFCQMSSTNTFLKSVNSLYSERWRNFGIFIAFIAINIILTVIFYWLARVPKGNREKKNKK
Experimental: (§1) Compounds were tested for inhibition of FLC transport by yeast strains overexpressing Cdr1 or Cdr1 mutations.

[6] = molecular target: Cdr1-M639I (FLC transport) (Candida albicans, UniProt Q5ANA3, M639I); assay: Agarose diffusion FLC chemosensitization assay; assay type: cell-based; conditions: 0.25× MICFLC, disc
Experimental: as §1

[7] = molecular target: Cdr1-T1355N (FLC transport) (Candida albicans, UniProt Q5ANA3, T1355N); assay: Agarose diffusion FLC chemosensitization assay; assay type: cell-based; conditions: 0.25× MICFLC, disc
Chain of Cdr1-T1355N (FLC transport) (Q5ANA3 whole entry T1355N, the tested form may be a part): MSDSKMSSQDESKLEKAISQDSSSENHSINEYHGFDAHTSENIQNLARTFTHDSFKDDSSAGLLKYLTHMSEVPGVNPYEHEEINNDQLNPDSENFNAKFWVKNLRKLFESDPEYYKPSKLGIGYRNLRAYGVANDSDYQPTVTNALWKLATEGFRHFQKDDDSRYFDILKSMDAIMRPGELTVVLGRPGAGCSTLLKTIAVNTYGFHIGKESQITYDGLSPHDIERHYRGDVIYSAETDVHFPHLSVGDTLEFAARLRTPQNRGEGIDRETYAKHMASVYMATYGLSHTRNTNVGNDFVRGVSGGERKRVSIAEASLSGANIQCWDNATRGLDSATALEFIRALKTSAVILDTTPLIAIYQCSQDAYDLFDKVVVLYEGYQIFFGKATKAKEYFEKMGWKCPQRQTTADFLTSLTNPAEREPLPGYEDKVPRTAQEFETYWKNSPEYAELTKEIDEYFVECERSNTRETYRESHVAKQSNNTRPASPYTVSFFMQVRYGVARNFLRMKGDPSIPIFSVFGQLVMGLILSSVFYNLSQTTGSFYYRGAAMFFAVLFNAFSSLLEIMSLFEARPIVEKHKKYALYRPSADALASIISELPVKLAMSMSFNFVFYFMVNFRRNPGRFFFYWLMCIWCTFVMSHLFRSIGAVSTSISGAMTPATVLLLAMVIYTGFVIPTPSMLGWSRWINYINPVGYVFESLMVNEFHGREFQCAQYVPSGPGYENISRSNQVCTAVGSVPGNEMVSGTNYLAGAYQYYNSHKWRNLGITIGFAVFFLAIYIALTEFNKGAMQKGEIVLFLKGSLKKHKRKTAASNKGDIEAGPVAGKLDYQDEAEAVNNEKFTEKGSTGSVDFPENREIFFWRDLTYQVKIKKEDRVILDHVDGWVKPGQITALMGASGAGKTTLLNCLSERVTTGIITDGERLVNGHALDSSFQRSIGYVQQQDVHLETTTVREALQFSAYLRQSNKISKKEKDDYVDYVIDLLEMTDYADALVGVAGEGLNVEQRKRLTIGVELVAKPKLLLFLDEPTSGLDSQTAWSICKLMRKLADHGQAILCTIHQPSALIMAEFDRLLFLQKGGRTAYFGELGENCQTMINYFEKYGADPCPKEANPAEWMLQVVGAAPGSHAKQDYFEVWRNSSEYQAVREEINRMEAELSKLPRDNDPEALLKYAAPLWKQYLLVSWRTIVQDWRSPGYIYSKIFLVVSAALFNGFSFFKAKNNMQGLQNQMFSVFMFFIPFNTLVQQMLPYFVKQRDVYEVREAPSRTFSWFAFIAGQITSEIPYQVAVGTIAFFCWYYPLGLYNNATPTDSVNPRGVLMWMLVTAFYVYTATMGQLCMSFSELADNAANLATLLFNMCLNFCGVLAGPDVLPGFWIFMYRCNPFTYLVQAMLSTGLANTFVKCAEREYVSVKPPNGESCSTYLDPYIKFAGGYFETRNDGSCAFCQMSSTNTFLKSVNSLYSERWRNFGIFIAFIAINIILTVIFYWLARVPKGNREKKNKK
Experimental: as §1

[8] = molecular target: Cdr1-A713P (FLC transport) (Candida albicans, UniProt Q5ANA3, A713P); assay: Agarose diffusion FLC chemosensitization assay; assay type: cell-based; conditions: 0.25× MICFLC, disc
Chain of Cdr1-A713P (FLC transport) (Q5ANA3 whole entry A713P, the tested form may be a part): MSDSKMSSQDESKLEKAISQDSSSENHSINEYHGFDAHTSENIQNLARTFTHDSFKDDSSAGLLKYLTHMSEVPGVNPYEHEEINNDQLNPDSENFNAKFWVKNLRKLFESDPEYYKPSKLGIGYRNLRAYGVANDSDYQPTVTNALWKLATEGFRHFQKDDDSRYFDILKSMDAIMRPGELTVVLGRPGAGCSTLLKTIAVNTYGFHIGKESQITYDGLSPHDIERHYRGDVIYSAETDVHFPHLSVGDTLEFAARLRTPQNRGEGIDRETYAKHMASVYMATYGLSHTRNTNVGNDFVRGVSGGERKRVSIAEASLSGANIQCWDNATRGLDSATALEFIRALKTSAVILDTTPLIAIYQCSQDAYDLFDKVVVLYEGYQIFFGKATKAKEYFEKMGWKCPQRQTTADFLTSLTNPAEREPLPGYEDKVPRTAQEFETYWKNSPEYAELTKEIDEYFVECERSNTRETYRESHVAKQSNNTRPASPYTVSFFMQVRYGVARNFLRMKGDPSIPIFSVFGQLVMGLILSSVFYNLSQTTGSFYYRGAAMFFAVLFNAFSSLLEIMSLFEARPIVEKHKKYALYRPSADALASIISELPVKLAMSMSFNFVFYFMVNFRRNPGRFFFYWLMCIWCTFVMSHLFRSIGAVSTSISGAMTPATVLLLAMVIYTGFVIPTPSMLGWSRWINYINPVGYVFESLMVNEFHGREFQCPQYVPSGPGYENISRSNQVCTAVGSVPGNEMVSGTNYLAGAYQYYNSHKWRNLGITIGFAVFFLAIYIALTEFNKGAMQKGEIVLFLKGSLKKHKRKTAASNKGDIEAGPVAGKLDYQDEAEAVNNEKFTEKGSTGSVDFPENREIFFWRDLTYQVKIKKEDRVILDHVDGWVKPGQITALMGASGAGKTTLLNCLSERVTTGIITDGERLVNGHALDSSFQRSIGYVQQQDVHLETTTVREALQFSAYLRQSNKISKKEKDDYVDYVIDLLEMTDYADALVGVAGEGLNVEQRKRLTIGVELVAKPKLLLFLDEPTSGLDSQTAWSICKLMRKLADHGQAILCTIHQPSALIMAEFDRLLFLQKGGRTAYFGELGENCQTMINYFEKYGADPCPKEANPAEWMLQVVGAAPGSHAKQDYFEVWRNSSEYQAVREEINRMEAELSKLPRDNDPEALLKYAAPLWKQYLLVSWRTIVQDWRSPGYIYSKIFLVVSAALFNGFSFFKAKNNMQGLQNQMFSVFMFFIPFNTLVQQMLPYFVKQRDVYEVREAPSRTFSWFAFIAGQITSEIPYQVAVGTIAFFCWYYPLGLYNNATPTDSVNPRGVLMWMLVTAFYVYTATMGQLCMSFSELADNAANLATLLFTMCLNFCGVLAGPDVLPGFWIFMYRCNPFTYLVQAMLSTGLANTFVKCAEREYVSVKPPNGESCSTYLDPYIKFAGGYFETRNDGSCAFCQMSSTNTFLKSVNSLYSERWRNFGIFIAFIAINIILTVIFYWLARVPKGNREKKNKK
Experimental: as §1

[9] = test system: all strains, including AD/pABC3; assay: Liquid MIC of efflux pump inhibitors alone
[10] = test system: AD/pABC3 (empty vector control, sensitive strain)
[11] = molecular target: wt Cdr1 (FLC transport of AD/CDR1 cells) (Candida albicans, UniProt Q5ANA3); assay: Agarose diffusion FLC chemosensitization assay; assay type: cell-based; conditions: inhibitor-only control
Experimental: as §1

[12] = CDR1 (wt), > = only partial inhibition, none = no reduction at highest concentration, read-out: Estimated IC50 for substrate inhibition of the ATPase activity
[13] = read-out: MIC (drug susceptibility), strain AD/pABC3
[14] = CDR1 (wt), from Fig. 4, read-out: IC50 for inhibition of Cdr1 ATPase activity
[15] = read-out: MIC (drug susceptibility)

## CCC(C)n1ncn(-c2ccc(N3CCN(c4ccc(OCC5COC(Cn6cncn6)(c6ccc(Cl)cc6Cl)O5)cc4)CC3)cc2)c1=O (stereo not drawn) [ITC, itraconazole]
AD/CDR1-A713P
  MIC: 1 µg/mL (≈ 1.42 µM)
AD/CDR1-G521R
  Fold-reduced resistance level (MIC) relative to AD/CDR1: 128 fold
  MIC: 0.25 µg/mL (≈ 0.354 µM)
AD/CDR1-T1355N
  MIC: 16 µg/mL (≈ 22.7 µM)
  Fold-reduced resistance level (MIC) relative to AD/CDR1: 2 fold
AD/CDR1-M639I
  Fold-reduced resistance level (MIC) relative to AD/CDR1: 2 fold
  MIC: 16 µg/mL (≈ 22.7 µM)
Wt Cdr1 ATPase activity; [12]
  IC50: > 32 µM
[1]; [13]
  MIC: 0.031 µg/mL (≈ 0.0439 µM)
[2]
  MIC: 32 µg/mL (≈ 45.3 µM)

## C=CC[C@@H]1/C=C(\C)C[C@H](C)C[C@H](OC)[C@H]2O[C@@](O)(C(=O)C(=O)N3CCCC[C@H]3C(=O)O[C@H](/C(C)=C/[C@@H]3CC[C@@H](O)[C@H](OC)C3)[C@H](C)[C@@H](O)CC1=O)[C@H](C)C[C@@H]2OC [FK506]
Wt Cdr1 ATPase activity; CDR1 (wt), Dixon plot, read-out: Ki (Cdr1 ATPase activity)
  Ki: 1.21 ± 0.24 µM
Wt Cdr1 ATPase activity; [14]
  IC50: 1.25 µM
Wt Cdr1 ATPase activity; [I] 0.5 μM
  Vmax of ATPase activity in the presence of inhibitor: 233 nmol/min/mg
Wt Cdr1 ATPase activity; [I] 1.0 μM
  Vmax of ATPase activity in the presence of inhibitor: 164 nmol/min/mg
Wt Cdr1 ATPase activity
  type of inhibition of ATPase activity (Lineweaver-Burk): noncompetitive inhibition
[3]
  synergy with the Cdr1 substrates FLC and R6G: no synergy
[4]
  FICI (inhibitor/FLC combination): <0.26
  IC50: 2.5 µM
[4]; CDR1
  lowest inhibitor concentration necessary to achieve the lowest MICFLC: 40 µM
  lowest MICFLC in the presence of inhibitor: 5 mg/L
[5]
  susceptibility of FLC transport to inhibitor on agar: resistant
[6]
  susceptibility of FLC transport to inhibitor on agar: remained susceptible
[7]
  susceptibility of FLC transport to inhibitor on agar: remained susceptible
[8]
  susceptibility of FLC transport to inhibitor on agar: resistant

## CO[C@@H]1C[C@@H](C[C@H]2CC[C@H](C)[C@H]([C@@H](C)C(=O)O)O2)O[C@]2(O[C@](C)([C@H]3CC[C@@](C)([C@@H]4O[C@@H]([C@H]5O[C@@](O)(CO)[C@H](C)C[C@@H]5C)C[C@@H]4C)O3)C[C@H]2C)[C@@H]1C [NIG, nigericin]
AD/CDR1-A713P
  Fold-reduced resistance level (MIC) relative to AD/CDR1: 16 fold
  MIC: 8 µg/mL (≈ 11 µM)
AD/CDR1-G521R
  MIC: 0.25 µg/mL (≈ 0.345 µM)
AD/CDR1-T1355N
  MIC: 128 µg/mL (≈ 177 µM)
  Fold-reduced resistance level (MIC) relative to AD/CDR1: 1 fold
AD/CDR1-M639I
  Fold-reduced resistance level (MIC) relative to AD/CDR1: 1 fold
  MIC: 128 µg/mL (≈ 177 µM)
Wt Cdr1 ATPase activity; [12]
  IC50: > 256 µM
[1]; [13]
  MIC: 0.063 µg/mL (≈ 0.0869 µM)
[2]
  MIC: 128 µg/mL (≈ 177 µM)

## CC(=O)N1CCN(c2ccc(OCC3COC(Cn4ccnc4)(c4ccc(Cl)cc4Cl)O3)cc2)CC1 (stereo not drawn) [KTC, ketoconazole]
AD/CDR1-A713P
  Fold-reduced resistance level (MIC) relative to AD/CDR1: 8 fold
  MIC: 1 µg/mL (≈ 1.88 µM)
AD/CDR1-G521R
  MIC: 0.125 µg/mL (≈ 0.235 µM)
AD/CDR1-T1355N
  MIC: 4 µg/mL (≈ 7.53 µM)
  Fold-reduced resistance level (MIC) relative to AD/CDR1: 2 fold
AD/CDR1-M639I
  Fold-reduced resistance level (MIC) relative to AD/CDR1: 2 fold
  MIC: 4 µg/mL (≈ 7.53 µM)
Wt Cdr1 ATPase activity; [12]
  IC50: 13 µM
[1]; [15]
  MIC: 0.008 µg/mL (≈ 0.0151 µM)
[2]
  MIC: 8 µg/mL (≈ 15.1 µM)

## CC(C)[C@H]1C(=O)O[C@H](C(C)C)C(=O)N(C)[C@@H](C(C)C)C(=O)O[C@H](C(C)C)C(=O)N(C)[C@@H](C(C)C)C(=O)O[C@H](C(C)C)C(=O)N1C [Enniatin B, enniatin B]
[9]; Saccharomyces cerevisiae, read-out: MIC of inhibitor alone
  MIC: 10 µM
Wt Cdr1 ATPase activity
  IC50: 0.18 µM
  Ki: 0.2 ± 0.03 µM
  type of inhibition of ATPase activity (Lineweaver-Burk): noncompetitive inhibition
Wt Cdr1 ATPase activity; [I] 0.1 μM
  Vmax of ATPase activity in the presence of inhibitor: 182 nmol/min/mg
Wt Cdr1 ATPase activity; [I] 0.5 μM
  Vmax of ATPase activity in the presence of inhibitor: 98 nmol/min/mg
[3]
  synergy with the Cdr1 substrates FLC and R6G: no synergy
[4]
  FICI (inhibitor/FLC combination): <0.13
  IC50: 0.16 µM
[4]; CDR1
  lowest inhibitor concentration necessary to achieve the lowest MICFLC: 1.25 µM
  lowest MICFLC in the presence of inhibitor: 5 mg/L
[5]
  susceptibility of FLC transport to inhibitor on agar: resistant
[6]
  susceptibility of FLC transport to inhibitor on agar: substantial resistance
[7]
  susceptibility of FLC transport to inhibitor on agar: substantial resistance
[8]
  susceptibility of FLC transport to inhibitor on agar: remained susceptible

## OC(Cn1cncn1)(Cn1cncn1)c1ccc(F)cc1F [FLC, fluconazole]
AD/CDR1-A713P
  Fold-reduced resistance level (MIC) relative to AD/CDR1: 2 fold
  MIC: 320 µg/mL (≈ 1040 µM)
[10]
  MIC (drug susceptibility): 1 µg/mL (≈ 3.27 µM)
AD/CDR1-G521R
  Fold-reduced resistance level (MIC) relative to AD/CDR1: 4 fold
  MIC: 160 µg/mL (≈ 522 µM)
AD/CDR1-T1355N
  MIC: 320 µg/mL (≈ 1040 µM)
  Fold-reduced resistance level (MIC) relative to AD/CDR1: 2 fold
AD/CDR1-M639I
  Fold-reduced resistance level (MIC) relative to AD/CDR1: 1 fold
  MIC: 640 µg/mL (≈ 2090 µM)
Wt Cdr1 ATPase activity
  effect of substrate on ATPase activity: no effect
[1]; [15]
  MIC: 1.25 µg/mL (≈ 4.08 µM)
[2]
  MIC: 640 µg/mL (≈ 2090 µM)
[4]
  MICFLC: 640 mg/L

## milbemycin α25
[9]; all strains, including AD/pABC3
  MIC of inhibitor alone: > 20 µM
Wt Cdr1 ATPase activity; [14]
  IC50: 2.8 µM
[4]
  FICI (inhibitor/FLC combination): <0.02
[4]; CDR1
  lowest inhibitor concentration necessary to achieve the lowest MICFLC: 0.63 µM
  lowest MICFLC in the presence of inhibitor: 5 mg/L
[4]; listed as milbemycin α25
  FICI (inhibitor/FLC combination): 0.02
[4]; read-out: IC50 for inhibition of FLC efflux (MICFLC), CDR1, live whole cells, from Fig. 3B
  IC50: 0.08 µM
[11]
  toxicity of inhibitor alone on agar without FLC: slight growth inhibitory zone
[5]
  susceptibility of FLC transport to inhibitor on agar: more resistant
[6]
  susceptibility of FLC transport to inhibitor on agar: most resistance
[7]
  susceptibility of FLC transport to inhibitor on agar: most resistance
[8]
  susceptibility of FLC transport to inhibitor on agar: resistant

## CC/N=c1\cc2oc3cc(NCC)c(C)cc3c(-c3ccccc3C(=O)OCC)c-2cc1C [R6G, rhodamine 6G]
AD/CDR1-A713P
  MIC: 32 µg/mL (≈ 72.3 µM)
AD/CDR1-G521R
  Fold-reduced resistance level (MIC) relative to AD/CDR1: 8 fold
  MIC: 4 µg/mL (≈ 9.04 µM)
AD/CDR1-T1355N
  MIC: 32 µg/mL (≈ 72.3 µM)
  Fold-reduced resistance level (MIC) relative to AD/CDR1: 1 fold
AD/CDR1-M639I
  Fold-reduced resistance level (MIC) relative to AD/CDR1: 2 fold
  MIC: 16 µg/mL (≈ 36.2 µM)
Wt Cdr1 ATPase activity; [12]
  IC50: 32 µM
[1]; [13]
  MIC: 0.5 µg/mL (≈ 1.13 µM)
[2]
  MIC: 32 µg/mL (≈ 72.3 µM)

## beauvericin
Wt Cdr1 ATPase activity; [I] 0.2 μM
  Vmax of ATPase activity in the presence of inhibitor: 132 nmol/min/mg
Wt Cdr1 ATPase activity; [I] 0.5 μM
  Vmax of ATPase activity in the presence of inhibitor: 63 nmol/min/mg
Wt Cdr1 ATPase activity
  type of inhibition of ATPase activity (Lineweaver-Burk): noncompetitive inhibition
[3]
  synergy with the Cdr1 substrates FLC and R6G: no synergy
[4]
  FICI (inhibitor/FLC combination): <0.13
[4]; CDR1
  lowest inhibitor concentration necessary to achieve the lowest MICFLC: 1.25 µM
  lowest MICFLC in the presence of inhibitor: 5 mg/L
[5]
  susceptibility of FLC transport to inhibitor on agar: resistant
[7]
  susceptibility of FLC transport to inhibitor on agar: slightly more resistant
[8]
  susceptibility of FLC transport to inhibitor on agar: remained susceptible

## CC[C@@]1([C@@H]2O[C@@H]([C@H]3O[C@@](O)(CO)[C@H](C)C[C@@H]3C)C[C@@H]2C)CC[C@H]([C@]2(C)CC[C@]3(C[C@H](O)[C@@H](C)[C@@H]([C@@H](C)[C@@H](OC)[C@H](C)C(=O)O)O3)O2)O1 [MON, monensin]
AD/CDR1-A713P
  MIC: 128 µg/mL (≈ 191 µM)
AD/CDR1-G521R
  Fold-reduced resistance level (MIC) relative to AD/CDR1: 256 fold
  MIC: 0.5 µg/mL (≈ 0.745 µM)
AD/CDR1-T1355N
  MIC: 128 µg/mL (≈ 191 µM)
  Fold-reduced resistance level (MIC) relative to AD/CDR1: 1 fold
AD/CDR1-M639I
  Fold-reduced resistance level (MIC) relative to AD/CDR1: 1 fold
  MIC: 128 µg/mL (≈ 191 µM)
Wt Cdr1 ATPase activity; [12]
  IC50: > 256 µM
[1]; [13]
  MIC: 0.031 µg/mL (≈ 0.0462 µM)
[2]
  MIC: 128 µg/mL (≈ 191 µM)

— PMC8765293, “Inhibitor-Resistant Mutants Give Important Insights into Candida albicans ABC Transporter Cdr1 Substrate Specificity and Help Elucidate Efflux Pump Inhibition” (Antimicrobial Agents and Chemotherapy, 2022)
